{"source": "paper PMC3088499", "about": "(Journal of medicinal chemistry, 2008)", "key": {"[1]": {"target": "T1, 5-HT2A receptor F340^6.52L mutant (Rattus norvegicus, UniProt P14842, F340L)", "T1 sequence (P14842 whole entry F340L)": "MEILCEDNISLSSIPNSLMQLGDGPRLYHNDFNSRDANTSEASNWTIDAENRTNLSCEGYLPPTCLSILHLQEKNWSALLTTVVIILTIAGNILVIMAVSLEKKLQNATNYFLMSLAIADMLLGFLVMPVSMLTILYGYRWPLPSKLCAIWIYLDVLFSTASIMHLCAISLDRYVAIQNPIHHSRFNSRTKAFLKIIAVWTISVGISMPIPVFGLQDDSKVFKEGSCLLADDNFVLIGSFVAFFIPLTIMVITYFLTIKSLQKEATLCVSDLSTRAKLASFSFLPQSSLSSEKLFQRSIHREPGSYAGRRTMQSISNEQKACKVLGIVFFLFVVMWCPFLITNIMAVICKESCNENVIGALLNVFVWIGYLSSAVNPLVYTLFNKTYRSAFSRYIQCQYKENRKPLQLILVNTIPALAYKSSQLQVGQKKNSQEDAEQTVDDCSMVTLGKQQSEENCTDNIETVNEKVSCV", "test": "[3H]ketanserin binding at F340L mutant 5-HT2A receptor", "details": "F340L vs wild type 5-HT2A"}, "NET": {"target": "NET (Homo sapiens, UniProt P23975)", "sequence (P23975 whole entry)": "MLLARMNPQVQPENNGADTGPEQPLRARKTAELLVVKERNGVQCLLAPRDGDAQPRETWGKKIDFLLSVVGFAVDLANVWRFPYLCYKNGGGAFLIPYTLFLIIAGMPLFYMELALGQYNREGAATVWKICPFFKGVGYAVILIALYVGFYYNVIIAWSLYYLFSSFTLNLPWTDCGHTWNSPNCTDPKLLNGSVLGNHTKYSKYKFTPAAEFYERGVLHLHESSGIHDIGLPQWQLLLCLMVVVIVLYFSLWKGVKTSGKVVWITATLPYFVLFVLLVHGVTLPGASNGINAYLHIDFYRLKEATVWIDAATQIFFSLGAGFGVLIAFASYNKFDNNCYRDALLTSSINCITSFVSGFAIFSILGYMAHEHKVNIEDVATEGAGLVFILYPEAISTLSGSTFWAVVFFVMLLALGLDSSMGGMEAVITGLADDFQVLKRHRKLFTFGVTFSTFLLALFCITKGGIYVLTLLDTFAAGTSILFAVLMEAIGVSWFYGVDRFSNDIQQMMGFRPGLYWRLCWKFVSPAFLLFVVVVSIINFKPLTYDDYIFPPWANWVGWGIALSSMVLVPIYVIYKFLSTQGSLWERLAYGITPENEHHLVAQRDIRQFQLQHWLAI", "test": "[3H]nisoxitine binding, NET"}, "5-HT2A sites": {"target": "5-HT2A sites", "details": "read-out: Ki, 5-HT2A receptor affinity; [3H]Ketanserin-labeled 5-HT2A sites; ref [13]; cited from earlier work"}, "[2]": {"target": "T1, 5-HT2A receptor F340^6.52L mutant", "details": "F340L vs wild type 5-HT2A, fold decrease; ref [41]; cited from earlier work"}, "5-HT2A F125^2.55L mutant": {"tested_on": "5-HT2A F125^2.55L mutant", "details": "cited from earlier work"}, "5-HT2A F125^2.55S mutant": {"tested_on": "5-HT2A F125^2.55S mutant", "details": "ref [107]; cited from earlier work"}, "5-HT2A M132^2.62L mutant": {"tested_on": "5-HT2A M132^2.62L mutant", "details": "ref [107]; cited from earlier work"}, "5-HT2A T134^2.64A mutant": {"tested_on": "5-HT2A T134^2.64A mutant", "details": "ref [107]; cited from earlier work"}, "5-HT2A S159^3.36A mutant": {"tested_on": "5-HT2A S159^3.36A mutant", "details": "ref [45]; cited from earlier work"}, "5-HT2A S159^3.36C mutant": {"tested_on": "5-HT2A S159^3.36C mutant", "details": "ref [45]; cited from earlier work"}, "5-HT2A D172^3.49N mutant": {"tested_on": "5-HT2A D172^3.49N mutant", "details": "ref [105]; cited from earlier work"}, "5-HT2A W200^4.50A mutant": {"tested_on": "5-HT2A W200^4.50A mutant", "details": "ref [44]; cited from earlier work"}, "5-HT2A F340^6.52L mutant": {"tested_on": "5-HT2A F340^6.52L mutant", "details": "cited from earlier work"}, "5-HT2A W367^7.40L mutant": {"tested_on": "5-HT2A W367^7.40L mutant", "details": "ref [44]; cited from earlier work"}}, "note": "Entries after “also recorded” stand apart in the source; their conditions may differ. Where a name gives a salt, the structure may show the parent alone. Read-outs that look alike come from different tables or passages of the source.", "data": [{"smiles": "NCC1c2ccccc2Cc2ccccc21", "note": "[Compound 1a, 9-aminomethyl-9,10-dihydroanthracene]", "values": [{"measurement": "decrease in affinity at F340L mutant compared to wild type receptor", "setting": "[1]", "result": 3, "unit": "fold"}]}, {"smiles": "NCC1c2ccccc2Cc2cc(Br)ccc21", "note": "(stereo not shown) [Compound 1b, 3-Bromo-9-aminomethyl-9,10-dihydroanthracene hydrochloride]", "values": [{"measurement": "decrease in affinity at F340L mutant compared to wild type receptor", "setting": "[1]", "result": "no change in affinity"}]}, {"smiles": "CCCCCCc1ccc2c(c1)Cc1ccccc1C2CN", "note": "(stereo not shown) [Compound 1d, 3-n-Hexyl-9-aminomethyl-9,10-dihydroanthracene fumarate]", "values": [{"measurement": "selectivity for the 5-HT2A receptor over the norepinephrine transporter", "setting": "NET", "result": 120, "unit": "fold"}]}, {"smiles": "COc1cc(CC(C)N)c(OC)cc1O", "note": "(stereo not shown) [Compound 2g]", "values": [{"measurement": "Ki", "setting": "5-HT2A sites", "result": "> 50", "unit": "µM"}]}, {"smiles": "COc1cc(CC(C)N)c(OC)cc1I", "note": "(stereo not shown) [DOI, 2,5-dimethoxy-4-iodoamphetamine]", "values": [{"measurement": "effect of F340L mutation on affinity", "setting": "[2]", "result": "approximately 14,000 fold"}]}, {"smiles": "O=C(c1ccc(F)cc1)C1CCN(CCn2c(=O)[nH]c3ccccc3c2=O)CC1", "note": "[ketanserin]", "values": [{"measurement": "effect of F340L mutation on affinity", "setting": "[2]", "result": "little effect"}, {"measurement": "Effect on ketanserin binding affinity", "setting": "5-HT2A F125^2.55L mutant; ref [44]", "result": "no effect"}, {"measurement": "Effect on ketanserin binding affinity", "setting": "5-HT2A F125^2.55L mutant; ref [104]", "result": "no effect"}, {"measurement": "Effect on ketanserin binding affinity", "setting": "5-HT2A F125^2.55L mutant; ref [106]", "result": "no effect"}, {"measurement": "Effect on ketanserin binding affinity", "setting": "5-HT2A F125^2.55S mutant", "result": "no effect"}, {"measurement": "Effect on ketanserin binding affinity", "setting": "5-HT2A M132^2.62L mutant", "result": "no effect"}, {"measurement": "Effect on ketanserin binding affinity", "setting": "5-HT2A T134^2.64A mutant", "result": "no effect"}, {"measurement": "Effect on ketanserin binding affinity", "setting": "5-HT2A S159^3.36A mutant", "result": "no effect"}, {"measurement": "Effect on ketanserin binding affinity", "setting": "5-HT2A S159^3.36C mutant", "result": "no effect"}, {"measurement": "Effect on ketanserin binding affinity", "setting": "5-HT2A D172^3.49N mutant", "result": "no effect"}, {"measurement": "Effect on ketanserin binding affinity", "setting": "5-HT2A W200^4.50A mutant", "result": "no effect"}, {"measurement": "Effect on ketanserin binding affinity", "setting": "5-HT2A F340^6.52L mutant; ref [104]", "result": "no effect"}, {"measurement": "Effect on ketanserin binding affinity", "setting": "5-HT2A F340^6.52L mutant; ref [107]", "result": "no effect"}, {"measurement": "Effect on ketanserin binding affinity", "setting": "5-HT2A W367^7.40L mutant", "result": "abolished; also recorded: no detectable binding"}]}]}
